Reference: patent publication US12692254B2, “Benzimidazole inhibitors of PAD enzymes” (BRISTOL-MYERS SQUIBB COMPANY, priority 2018, dated 2026)

Molecular target: human PAD4 (hPAD4) (Homo sapiens, UniProt Q9UM07)
Assay: RFMS human PAD4 functional assay (rapid-fire mass spectrum)
Format: biochemical
Settings: 5 nM hPAD4 enzyme, 250 μM BAEE, 50 μM Calcium; 30 min preincubation, 90 min reaction at 37° C.
Summary of the method: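 PAD4 (10 nM) preincubated 30 min with compound (top final 50 μM), then BAEE substrate added in pH 7.5 HEPES buffer with DTT, 50 μM calcium, TPEN; 90 min at 37° C. After TCA quench, citrulline derivatized with phenyl glyoxal (4 mM final, 30 min, 37° C) and quantified by RapidFire MS against internal standard.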

Chain of human PAD4 (hPAD4) (Q9UM07 whole entry): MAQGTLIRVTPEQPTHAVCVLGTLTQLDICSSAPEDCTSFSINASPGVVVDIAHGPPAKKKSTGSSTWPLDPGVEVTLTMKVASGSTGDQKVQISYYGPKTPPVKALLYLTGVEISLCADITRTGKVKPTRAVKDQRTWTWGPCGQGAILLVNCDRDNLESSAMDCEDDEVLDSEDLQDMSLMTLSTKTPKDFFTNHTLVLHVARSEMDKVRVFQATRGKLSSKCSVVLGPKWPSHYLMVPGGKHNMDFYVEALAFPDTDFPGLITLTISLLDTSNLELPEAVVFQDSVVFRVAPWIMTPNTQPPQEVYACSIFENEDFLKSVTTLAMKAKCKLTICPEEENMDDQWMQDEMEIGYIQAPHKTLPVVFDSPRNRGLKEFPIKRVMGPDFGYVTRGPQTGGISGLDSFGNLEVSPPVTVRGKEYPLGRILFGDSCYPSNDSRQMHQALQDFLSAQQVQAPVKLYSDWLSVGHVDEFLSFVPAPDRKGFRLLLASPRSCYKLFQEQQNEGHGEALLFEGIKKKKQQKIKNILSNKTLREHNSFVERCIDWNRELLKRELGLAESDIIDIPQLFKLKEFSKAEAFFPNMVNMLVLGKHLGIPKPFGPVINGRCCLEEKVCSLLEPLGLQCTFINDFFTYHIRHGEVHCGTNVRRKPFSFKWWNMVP

SMILES	IC50
COc1cc(C(=O)N2CC3CCC2[C@@H]3N)cc2nc(-c3cc4cccnc4n3CC3CC3)n(Cc3cnn(-c4cncc(F)c4)c3)c12 (stereo partly drawn) [Example 372, (7R)-2-{2-[1-(cyclopropylmethyl)-1H-pyrrolo[2,3-b]pyridin-2-yl]-1-{[1-(5-fluoropyridin-3-yl)-1H-pyrazol-4-yl]methyl}-7-methoxy-1H-1,3-benzodiazole-5-carbonyl}-2-azabicyclo[2.2.1]heptan-7-amine]	32 nM
COc1cc(C(=O)N2CC3CCC2[C@@H]3N)cc2nc(-c3cc4cccnc4n3CC3CC3)n(Cc3cnn(-c4cnccn4)c3)c12 (stereo partly drawn) [Example 373, (7R)-2-{2-[1-(cyclopropylmethyl)-1H-pyrrolo[2,3-b]pyridin-2-yl]-7-methoxy-1-{[1-(pyrazin-2-yl)-1H-pyrazol-4-yl]methyl}-1H-1,3-benzodiazole-5-carbonyl}-2-azabicyclo[2.2.1]heptan-7-amine]	34 nM
COc1cc(C(=O)N2CC3CCC2[C@@H]3N)cc2nc(-c3cc4cccnc4n3CC3CC3)n(Cc3cnn(-c4cccnc4O)c3)c12 (stereo partly drawn) [Example 374, 3-[4-({5-[(7R)-7-amino-2-azabicyclo[2.2.1]heptane-2-carbonyl]-2-[1-(cyclopropylmethyl)-1H-pyrrolo[2,3-b]pyridin-2-yl]-7-methoxy-1H-1,3-benzodiazol-1-yl}methyl)-1H-pyrazol-1-yl]pyridin-2-ol]	35 nM
COc1cc(C(=O)N2C[C@H](N)C[C@@H](F)C2)cc2nc(-c3cc4cccnc4n3CC3CC3)n(Cc3cnn(-c4cccc(C(F)F)n4)c3)c12 [Example 375]	35 nM
COc1cc(C(=O)N2CC3CCC2[C@@H]3N)cc2nc(-c3cc4ccccc4n3CC3CC3)n(Cc3cnn(-c4cc(F)cnc4O)c3)c12 (stereo partly drawn) [Example 376, 3-[4-({5-[(7R)-7-amino-2-azabicyclo[2.2.1]heptane-2-carbonyl]-2-[1-(cyclopropylmethyl)-1H-indol-2-yl]-7-methoxy-1H-1,3-benzodiazol-1-yl}methyl)-1H-pyrazol-1-yl]-5-fluoropyridin-2-ol]	37 nM
COc1cc(C(=O)N2CC3CCC2[C@@H]3N)cc2nc(-c3cc4cccnc4n3CC3CC3)n(Cc3cnn(-c4ccc[n+]([O-])c4)c3)c12 (stereo partly drawn) [Example 377, 3-[4-({5-[(7R)-7-amino-2-azabicyclo[2.2.1]heptane-2-carbonyl]-2-[1-(cyclopropylmethyl)-1H-pyrrolo[2,3-b]pyridin-2-yl]-7-methoxy-1H-1,3-benzodiazol-1-yl}methyl)-1H-pyrazol-1-yl]pyridin-1-ium-1-olate]	37 nM
COc1cccc(-n2cc(Cn3c(-c4cc5ccccc5n4CC4CC4)nc4cc(C(=O)N5CC6CCC5[C@@H]6N)cc(OC)c43)cn2)n1 (stereo partly drawn) [Example 378, (7R)-2-{2-[1-(cyclopropylmethyl)-1H-indol-2-yl]-7-methoxy-1-{[1-(6-methoxypyridin-2-yl)-1H-pyrazol-4-yl]methyl}-1H-1,3-benzodiazole-5-carbonyl}-2-azabicyclo[2.2.1]heptan-7-amine]	37 nM
COc1cc(C(=O)N2CC3CCC2[C@@H]3N)cc2nc(-c3cc4ccccc4n3CC3CC3)n(Cc3cnn(-c4cncnc4)c3)c12 (stereo partly drawn) [Example 379, (7R)-2-{2-[1-(cyclopropylmethyl)-1H-indol-2-yl]-7-methoxy-1-{[1-(pyrimidin-5-yl)-1H-pyrazol-4-yl]methyl}-1H-1,3-benzodiazole-5-carbonyl}-2-azabicyclo[2.2.1]heptan-7-amine]	37 nM
COc1cc(C(=O)N2CC3CCC2[C@@H]3N)cc2nc(-c3cc4cccnc4n3CC3CC3)n(Cc3cnn(-c4cc(F)cnc4O)c3)c12 (stereo partly drawn) [Example 380, 3-[4-({5-[(7R)-7-amino-2-azabicyclo[2.2.1]heptane-2-carbonyl]-2-[1-(cyclopropylmethyl)-1H-pyrrolo[2,3-b]pyridin-2-yl]-7-methoxy-1H-1,3-benzodiazol-1-yl)methyl}-1H-pyrazol-1-yl]-5-fluoropyridin-2-ol]	37 nM
